Among the data in PubChem BioAssay AID256 (DTP/NCI, 2004) are T/C values, retold here.

For the assay, the system named is CD2F1 mice, L1210 leukemia ip, survival T/C. The assay is described as follows: NCI In Vivo Anticancer Drug Screen. Data for tumor model L1210 Leukemia (intraperitoneal) in CD2F1 (CDF1) mice. The following applies: higher = longer survival. In a few lines:
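Compound-dosed mice with transplantable tumor versus matched vehicle controls; endpoint ratio T/C reported.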

The structures appear in SMILES notation. “And” between values parts separate entries of the source, which are not always exact repeats. Equal entries are not always repeated. Inconclusive results and toxic doses are left out.

Regarding `Cc1nc(N)nc(N)c1-c1ccc(Cl)c(Cl)c1`, the T/C was 106 % of control (endpoint: mean survival time, dose: 1.0 mg/kg/injection, schedule: Q01DX009 (ip), vehicle: Klucel (hydroxypropylcellulose) (HPC)); 107 % of control (endpoint: mean survival time, dose: 1.0 mg/kg/injection, schedule: Q01DX009 (ip), vehicle: saline with Tween-80); 115 % of control (endpoint: mean survival time, dose: 1.0 mg/kg/injection, schedule: Q02DX005 (ip), vehicle: saline); 95 % of control (endpoint: mean survival time, dose: 1.25 mg/kg/injection, schedule: Q01DX005 (ip), vehicle: distilled water + Tween-80); 104 % of control (endpoint: mean survival time, dose: 1.25 mg/kg/injection, schedule: Q01DX005 (ip), vehicle: water); 123 % of control (endpoint: mean survival time, dose: 1.3 mg/kg/injection, schedule: Q01DX009 (sc), vehicle: other). Also, the T/C reads like this: (endpoint: mean survival time, dose: 2.0 mg/kg/injection, schedule: Q01DX009 (ip), vehicle: Klucel (hydroxypropylcellulose) (HPC)) 107 % of control; (endpoint: mean survival time, dose: 2.0 mg/kg/injection, schedule: Q01DX009 (ip), vehicle: saline with Tween-80) 119 % of control; (endpoint: mean survival time, dose: 2.0 mg/kg/injection, schedule: Q02DX005 (ip), vehicle: saline) 115 % of control; (endpoint: mean survival time, dose: 2.5 mg/kg/injection, schedule: Q01DX005 (ip), vehicle: distilled water + Tween-80) 93 % of control; (endpoint: mean survival time, dose: 2.5 mg/kg/injection, schedule: Q01DX005 (ip), vehicle: water) 100 % of control; (endpoint: mean survival time, dose: 4.0 mg/kg/injection, schedule: Q01DX009 (ip), vehicle: Klucel (hydroxypropylcellulose) (HPC)) 109 % of control. For the same molecule, the T/C (endpoint: mean survival time, dose: 4.0 mg/kg/injection, schedule: Q02DX005 (ip), vehicle: saline) was 107 % of control; the T/C (endpoint: mean survival time, dose: 4.0 mg/kg/injection, schedule: Q03DX002 (ip), vehicle: saline with Tween-80) was 108 % of control; the T/C (endpoint: mean survival time, dose: 5.0 mg/kg/injection, schedule: Q01DX005 (ip), vehicle: distilled water + Tween-80) was 98 % of control; the T/C (endpoint: mean survival time, dose: 5.0 mg/kg/injection, schedule: Q01DX005 (ip), vehicle: water) is 100 % of control; the T/C (endpoint: mean survival time, dose: 5.0 mg/kg/injection, schedule: Q02DX005 (ip), vehicle: saline) is 87 % of control; the T/C (endpoint: mean survival time, dose: 5.0 mg/kg/injection, schedule: Q## X005 (ip), vehicle: saline) is 117 % of control. The T/C was 103 % of control (endpoint: mean survival time, dose: 6.0 mg/kg/injection, schedule: Q03DX002 (ip), vehicle: saline with Tween-80); 93 % of control (endpoint: mean survival time, dose: 8.0 mg/kg/injection, schedule: Q03DX002 (ip), vehicle: saline with Tween-80); 102 % of control (endpoint: mean survival time, dose: 10.0 mg/kg/injection, schedule: Q01DX005 (ip), vehicle: distilled water + Tween-80); 98 % of control (endpoint: mean survival time, dose: 10.0 mg/kg/injection, schedule: Q01DX005 (ip), vehicle: water); 110 % of control (endpoint: mean survival time, dose: 10.0 mg/kg/injection, schedule: Q03DX002 (ip), vehicle: saline with Tween-80); 102 % of control (endpoint: mean survival time, dose: 10.0 mg/kg/injection, schedule: Q## X005 (ip), vehicle: saline). Further, the T/C (endpoint: mean survival time, dose: 12.0 mg/kg/injection, schedule: Q03DX002 (ip), vehicle: saline with Tween-80) was 117 % of control; the T/C (endpoint: mean survival time, dose: 16.0 mg/kg/injection, schedule: Q01DX009 (ip), vehicle: Klucel (hydroxypropylcellulose) (HPC)) is 111 % of control; the T/C (endpoint: mean survival time, dose: 20.0 mg/kg/injection, schedule: Q01DX005 (ip), vehicle: distilled water + Tween-80) was 100 % of control; the T/C (endpoint: mean survival time, dose: 20.0 mg/kg/injection, schedule: Q01DX005 (ip), vehicle: water) is 98 % of control; the T/C (endpoint: mean survival time, dose: 20.0 mg/kg/injection, schedule: Q04DX002 (ip), vehicle: saline) was 97 % of control; the T/C (endpoint: mean survival time, dose: 20.0 mg/kg/injection, schedule: Q## X005 (ip), vehicle: saline) was 88 % of control. In addition, the T/C (endpoint: mean survival time, dose: 30.0 mg/kg/injection, schedule: Q04DX002 (ip), vehicle: saline) is 107 % of control; the T/C (endpoint: mean survival time, dose: 40.0 mg/kg/injection, schedule: Q04DX002 (ip), vehicle: saline) is 118 % of control and 103 % of control; the T/C (endpoint: mean survival time, dose: 50.0 mg/kg/injection, schedule: Q04DX002 (ip), vehicle: saline) was 100 % of control; the T/C (endpoint: mean survival time, dose: 60.0 mg/kg/injection, schedule: Q04DX002 (ip), vehicle: saline) was 108 % of control; the T/C (endpoint: mean survival time, dose: 75.0 mg/kg/injection, schedule: Q04DX003 (ip), vehicle: saline) was 118 % of control; the T/C (endpoint: median survival time, dose: 0.62 mg/kg/injection, schedule: Q01DX009 (ip), vehicle: saline) was 96 % of control. Moreover, the T/C was 97 % of control (endpoint: median survival time, dose: 1.25 mg/kg/injection, schedule: Q01DX009 (ip), vehicle: saline); 111 % of control (endpoint: median survival time, dose: 5.0 mg/kg/injection, schedule: Q01DX009 (ip), vehicle: saline); 113 % of control (endpoint: median survival time, dose: 10.0 mg/kg/injection, schedule: Q01DX009 (ip), vehicle: saline); 97 % of control (endpoint: median survival time, dose: 20.0 mg/kg/injection, schedule: Q01DX009 (ip), vehicle: saline).

`Nc1nc(Cl)nc2c1ncn2C1OC(CO)C(O)C1O` (stereo unspecified): the T/C is, setting by setting: (endpoint: mean survival time, dose: 6.25 mg/kg/injection, schedule: Q04DX002 (ip), vehicle: saline) 94 % of control; (endpoint: mean survival time, dose: 12.5 mg/kg/injection, schedule: Q04DX002 (ip), vehicle: saline) 109 % of control; (endpoint: mean survival time, dose: 25.0 mg/kg/injection, schedule: Q04DX002 (ip), vehicle: saline) 105 % of control; (endpoint: mean survival time, dose: 100.0 mg/kg/injection, schedule: Q01DX009 (ip), vehicle: saline) 121 % of control.

As to `CCC1(O)C(=O)OCc2c1cc1n(c2=O)Cc2cc3cc(O)c(O)cc3nc2-1` (stereo unspecified), the T/C is, setting by setting: (endpoint: median survival time, dose: 10.0 mg/kg/injection, schedule: Q04DX002 (ip), vehicle: saline with Tween-80) 153 % of control; (endpoint: median survival time, dose: 40.0 mg/kg/injection, schedule: Q04DX002 (ip), vehicle: saline with Tween-80) 157 % of control; (endpoint: median survival time, dose: 80.0 mg/kg/injection, schedule: Q04DX002 (ip), vehicle: saline with Tween-80) 173 % of control.

Regarding `CCOc1cccc(Cc2cn(Cc3ccc(NC(=O)c4ccc(S(=O)(=O)F)cc4)cc3)c(=O)[nH]c2=O)c1`, the T/C reads like this: (endpoint: mean survival time, dose: 100.0 mg/kg/injection, schedule: Q01DX001 (ip), vehicle: saline with Tween-80) 101 % of control; (endpoint: mean survival time, dose: 200.0 mg/kg/injection, schedule: Q01DX001 (ip), vehicle: saline with Tween-80) 95 % of control; (endpoint: mean survival time, dose: 400.0 mg/kg/injection, schedule: Q01DX001 (ip), vehicle: saline with Tween-80) 95 % of control.

`CCOc1c[n+](C)c(C)s1`: the T/C reads like this: (endpoint: mean survival time, dose: 50.0 mg/kg/injection, schedule: Q01DX001 (ip), vehicle: carboxymethylcellulose (CMC)) 94 % of control; (endpoint: mean survival time, dose: 100.0 mg/kg/injection, schedule: Q01DX001 (ip), vehicle: carboxymethylcellulose (CMC)) 92 % of control; (endpoint: mean survival time, dose: 200.0 mg/kg/injection, schedule: Q01DX001 (ip), vehicle: carboxymethylcellulose (CMC)) 103 % of control.

Consider `CCN(CC)CC(C)Nc1c2ccc(Cl)cc2nc2ccc(OC)cc12` (stereo unspecified), for which the T/C runs as follows: (endpoint: mean survival time, dose: 100.0 mg/kg/injection, schedule: Q04DX002 (ip), vehicle: saline with Tween-80) 94 % of control; (endpoint: mean survival time, dose: 200.0 mg/kg/injection, schedule: Q04DX002 (ip), vehicle: saline with Tween-80) 91 % of control; (endpoint: mean survival time, dose: 400.0 mg/kg/injection, schedule: Q04DX002 (ip), vehicle: saline with Tween-80) 97 % of control.

Turning to `S=c1[nH]cc2cnccn12`, the T/C runs as follows: (endpoint: mean survival time, dose: 12.5 mg/kg/injection, schedule: Q01DX009 (ip), vehicle: saline with Tween-80) 92 % of control and 103 % of control; (endpoint: mean survival time, dose: 25.0 mg/kg/injection, schedule: Q01DX009 (ip), vehicle: saline with Tween-80) 97 % of control and 100 % of control; (endpoint: mean survival time, dose: 50.0 mg/kg/injection, schedule: Q01DX009 (ip), vehicle: saline with Tween-80) 95 % of control and 105 % of control; (endpoint: mean survival time, dose: 100.0 mg/kg/injection, schedule: Q01DX009 (ip), vehicle: saline with Tween-80) 93 % of control and 100 % of control; (endpoint: mean survival time, dose: 200.0 mg/kg/injection, schedule: Q01DX009 (ip), vehicle: saline with Tween-80) 104 % of control; (endpoint: mean survival time, dose: 400.0 mg/kg/injection, schedule: Q01DX009 (ip), vehicle: saline with Tween-80) 97 % of control.

For the molecule `Nc1nnnc2c1ncn2C1OC(CO)C(O)C1O` (stereo unspecified), the T/C (endpoint: mean survival time, dose: 300.0 mg/kg/injection, schedule: Q01DX001 (ip), vehicle: saline) is 121 % of control.

Take `CCC(C)(C[NH-])C[NH-].[Cl][Pt+2][Cl]`: the T/C is, setting by setting: (endpoint: mean survival time, dose: 1.56 mg/kg/injection, schedule: Q04DX003 (ip), vehicle: saline) 114 % of control; (endpoint: mean survival time, dose: 3.12 mg/kg/injection, schedule: Q04DX003 (ip), vehicle: saline) 118 % of control; (endpoint: mean survival time, dose: 6.25 mg/kg/injection, schedule: Q04DX003 (ip), vehicle: saline) 124 % of control; (endpoint: mean survival time, dose: 12.5 mg/kg/injection, schedule: Q04DX003 (ip), vehicle: saline with Tween-80) 285 % of control; (endpoint: mean survival time, dose: 25.0 mg/kg/injection, schedule: Q04DX003 (ip), vehicle: saline) 312 % of control.

`Cc1cccc(CC(F)(F)F)c1`: the T/C was 102 % of control (endpoint: mean survival time, dose: 100.0 mg/kg/injection, schedule: Q04DX003 (ip), vehicle: saline with Tween-80); 100 % of control (endpoint: mean survival time, dose: 200.0 mg/kg/injection, schedule: Q04DX003 (ip), vehicle: saline with Tween-80); 89 % of control (endpoint: mean survival time, dose: 400.0 mg/kg/injection, schedule: Q04DX003 (ip), vehicle: saline with Tween-80).
